The conditions of data set [1]: cited from earlier work.
Data set [2] can be described thus: Spontaneous adsorption and concentration of bevacizumab in porous SiO2. Type of data set: physicochemical. Conditions: 0.125 mg/mL solution. The source says: The affinity of a porous Si particle for a particular molecule can be controlled with surface chemistry. The surface of oxidized porous Si has a point of zero charge at a pH of around 2, and so it presents a negatively charged surface to most aqueous solutions of interest. At the appropriate pH, porous SiO2 spontaneously adsorbs positively charged proteins such as serum albumin, fibrinogen, protein A, immunoglobulin G (IgG), or horseradish peroxidase, concentrating them in the process. For example, a 0.125 mg/mL solution of the monoclonal antibody bevacizumab (trade name Avastin, an anti-cancer drug) spontaneously concentrates in suitably prepared porous SiO2 by a factor of >100.

The conditions of data set [3]: in vivo; cited from earlier work.

As a reminder, the IC50 is the concentration that gives 50% inhibition. Consider bevacizumab [Avastin], for which, in data set [1], the IC50 is 0.022 µg/mL. In addition, the Therapeutically relevant dose in data set [1] (intraocular) is on record as more than 22 ng/mL. The “Concentration factor in suitably prepared porous SiO2” value in data set [2] was more than 100 factor. Also, the “Vitreous half-life of free drug” value in data set [3] was 120 h.
